Data taken from patent US12030878B2 (BRISTOL-MYERS SQUIBB COMPANY, priority 2017, dated 2024).

Key:
Format in all cases: cell-based
human TLR9 = target: T1, human TLR9 (Homo sapiens, UniProt Q9NR96); test: TLR9 inhibition reporter assay (HEK-Blue SEAP); details: HEK-Blue cells overexpressing human TLR9, stimulated with ODN2006 5 nM, 22 hour incubation
T1 construct: host or cells: HEK-Blue cells
T1 sequence (Q9NR96 26-1032): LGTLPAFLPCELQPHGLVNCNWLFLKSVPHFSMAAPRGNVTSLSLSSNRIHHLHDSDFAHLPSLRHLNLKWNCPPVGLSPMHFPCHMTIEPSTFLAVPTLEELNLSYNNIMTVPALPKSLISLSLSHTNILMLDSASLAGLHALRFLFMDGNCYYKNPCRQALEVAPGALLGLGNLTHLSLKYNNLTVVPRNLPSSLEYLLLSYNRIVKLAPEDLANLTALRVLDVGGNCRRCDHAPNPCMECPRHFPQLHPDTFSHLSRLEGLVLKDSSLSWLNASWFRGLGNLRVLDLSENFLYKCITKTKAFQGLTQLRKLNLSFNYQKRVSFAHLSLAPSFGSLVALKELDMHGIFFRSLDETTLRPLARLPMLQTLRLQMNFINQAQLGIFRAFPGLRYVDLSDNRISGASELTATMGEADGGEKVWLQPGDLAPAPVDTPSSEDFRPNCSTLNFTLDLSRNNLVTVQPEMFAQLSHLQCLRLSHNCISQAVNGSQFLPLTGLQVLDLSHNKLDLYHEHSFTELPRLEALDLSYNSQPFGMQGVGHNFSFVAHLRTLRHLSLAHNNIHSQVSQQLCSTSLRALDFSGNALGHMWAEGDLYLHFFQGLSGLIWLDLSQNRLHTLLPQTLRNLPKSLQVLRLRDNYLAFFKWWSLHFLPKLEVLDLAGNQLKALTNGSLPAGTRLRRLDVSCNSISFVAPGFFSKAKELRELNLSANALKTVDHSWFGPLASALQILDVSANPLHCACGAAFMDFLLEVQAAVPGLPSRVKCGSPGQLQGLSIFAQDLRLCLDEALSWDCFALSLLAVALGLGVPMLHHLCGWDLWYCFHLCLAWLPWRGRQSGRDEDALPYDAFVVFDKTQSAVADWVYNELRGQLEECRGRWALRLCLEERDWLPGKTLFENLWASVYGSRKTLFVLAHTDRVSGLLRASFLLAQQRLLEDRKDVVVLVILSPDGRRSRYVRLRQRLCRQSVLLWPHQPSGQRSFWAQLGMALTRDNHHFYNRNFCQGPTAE
How it was run: (§1)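 SEAP read-out via HEK-Blue Detection medium after 22 h at 37 °C; percent inhibition relative to agonist-plus-DMSO and known-inhibitor wells. Agonists: TLR7 gardiquimod 7.5 μM, TLR8 R848 15.9 μM, TLR9 ODN2006 5 nM. Dose range 0.05 nM–50 μM, 30 min compound pre-treatment at RT.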

human TLR8 = target: T2, human TLR8 (Homo sapiens, UniProt Q9NR97); test: TLR8 inhibition reporter assay (HEK-Blue SEAP); details: HEK-Blue cells overexpressing human TLR8, stimulated with R848 15.9 μM, 22 hour incubation
T2 construct: host or cells: HEK-Blue cells
T2 sequence (Q9NR97 27-1041): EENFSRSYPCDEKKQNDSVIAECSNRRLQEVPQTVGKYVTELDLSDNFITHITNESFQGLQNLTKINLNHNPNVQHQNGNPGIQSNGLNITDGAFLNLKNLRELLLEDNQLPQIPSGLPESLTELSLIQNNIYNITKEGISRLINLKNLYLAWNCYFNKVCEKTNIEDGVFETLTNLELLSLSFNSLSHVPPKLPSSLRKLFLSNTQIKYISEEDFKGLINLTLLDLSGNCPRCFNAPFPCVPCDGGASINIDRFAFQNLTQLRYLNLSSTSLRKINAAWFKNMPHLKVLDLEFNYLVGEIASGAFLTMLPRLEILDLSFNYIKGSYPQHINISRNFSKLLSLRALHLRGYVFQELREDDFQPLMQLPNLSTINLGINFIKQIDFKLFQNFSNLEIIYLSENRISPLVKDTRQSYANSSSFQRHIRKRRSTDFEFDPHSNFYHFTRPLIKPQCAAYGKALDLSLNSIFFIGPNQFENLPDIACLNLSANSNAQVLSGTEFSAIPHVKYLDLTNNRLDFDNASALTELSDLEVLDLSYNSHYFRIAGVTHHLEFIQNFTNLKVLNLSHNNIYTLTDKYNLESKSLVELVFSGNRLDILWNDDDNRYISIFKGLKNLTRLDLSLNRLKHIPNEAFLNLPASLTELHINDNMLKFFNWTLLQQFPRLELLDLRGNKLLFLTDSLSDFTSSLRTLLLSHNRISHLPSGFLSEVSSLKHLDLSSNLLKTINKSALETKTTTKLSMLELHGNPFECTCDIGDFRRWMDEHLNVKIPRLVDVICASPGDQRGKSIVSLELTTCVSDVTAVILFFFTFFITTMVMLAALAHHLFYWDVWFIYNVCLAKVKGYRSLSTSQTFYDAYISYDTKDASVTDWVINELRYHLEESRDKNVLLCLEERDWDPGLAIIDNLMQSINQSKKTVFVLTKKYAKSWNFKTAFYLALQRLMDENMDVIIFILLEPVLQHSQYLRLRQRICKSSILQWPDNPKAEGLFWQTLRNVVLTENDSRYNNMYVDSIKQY
How it was run: as §1

human TLR7 = target: T3, human TLR7 (Homo sapiens, UniProt Q9NYK1); test: TLR7 inhibition reporter assay (HEK-Blue SEAP); details: HEK-Blue cells overexpressing human TLR7, stimulated with gardiquimod 7.5 μM, 22 hour incubation
T3 construct: host or cells: HEK-Blue cells
T3 sequence (Q9NYK1 27-1049): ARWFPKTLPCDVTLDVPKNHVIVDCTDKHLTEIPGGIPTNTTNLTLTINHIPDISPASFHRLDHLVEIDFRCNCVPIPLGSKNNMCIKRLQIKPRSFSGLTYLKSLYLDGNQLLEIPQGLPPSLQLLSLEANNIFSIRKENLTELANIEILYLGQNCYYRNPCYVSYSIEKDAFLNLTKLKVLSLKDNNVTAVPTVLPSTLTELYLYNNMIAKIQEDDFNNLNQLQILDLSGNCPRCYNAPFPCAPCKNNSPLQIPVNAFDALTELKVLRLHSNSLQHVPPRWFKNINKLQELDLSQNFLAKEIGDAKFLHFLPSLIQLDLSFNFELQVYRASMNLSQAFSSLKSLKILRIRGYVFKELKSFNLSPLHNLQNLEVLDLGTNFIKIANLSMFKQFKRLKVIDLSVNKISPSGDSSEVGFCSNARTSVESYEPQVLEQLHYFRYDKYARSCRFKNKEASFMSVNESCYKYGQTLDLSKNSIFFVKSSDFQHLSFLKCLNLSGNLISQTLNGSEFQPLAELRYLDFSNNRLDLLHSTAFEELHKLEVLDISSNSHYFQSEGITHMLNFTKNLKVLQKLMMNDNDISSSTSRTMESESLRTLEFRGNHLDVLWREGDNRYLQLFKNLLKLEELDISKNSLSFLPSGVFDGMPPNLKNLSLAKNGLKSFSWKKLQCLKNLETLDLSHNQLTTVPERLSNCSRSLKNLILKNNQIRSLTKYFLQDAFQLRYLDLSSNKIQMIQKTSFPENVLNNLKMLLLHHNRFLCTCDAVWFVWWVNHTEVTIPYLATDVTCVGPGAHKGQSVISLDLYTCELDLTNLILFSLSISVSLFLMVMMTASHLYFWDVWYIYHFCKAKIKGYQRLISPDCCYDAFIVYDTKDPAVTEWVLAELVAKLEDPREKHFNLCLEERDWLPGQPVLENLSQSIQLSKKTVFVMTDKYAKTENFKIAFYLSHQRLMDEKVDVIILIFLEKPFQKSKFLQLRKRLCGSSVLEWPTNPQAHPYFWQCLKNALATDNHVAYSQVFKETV
How it was run: as §1

SMILES	IC50 (human TLR9)	IC50 (human TLR8)	IC50 (human TLR7)
Cc1cc(-c2[nH]c3ccc(OCC4CCNCC4)cc3c2C(C)C)cn2ncnc12 [Example 12, 6-(3-isopropyl-5-(piperidin-4-ylmethoxy)-1H-indol-2-yl)-8-methyl-[1,2,4] triazolo[1,5-a]pyridine]	1.1 µM	0.003 µM	0.0003 µM
Cc1cc(-c2[nH]c3ccc(OC4CCN(C(=O)CN(C)C)CC4)cc3c2C(C)C)cn(C)c1=O [Example 100, 5-(5-((1-(dimethylglycyl)piperidin-4-yl)oxy)-3-isopropyl-1H-indol-2-yl)-1,3-dimethylpyridin-2(1H)-one]	9.84 µM	0.0104 µM	0.0041 µM
Cc1cc(-c2[nH]c3ccc(OCC4CCN(C)CC4)cc3c2C(C)C)cn(C)c1=O [Example 34, 5-(3-isopropyl-5-((1-methylpiperidin-4-yl)methoxy)-1H-indol-2-yl)-1,3-dimethylpyridin-2(1H)-one]	5.55 µM	0.0016 µM	0.0024 µM
Cc1c(-c2[nH]c3ccc(OCC4CCN(CC(=O)N(C)C)CC4)cc3c2C(C)C)cn2cnnc2c1C [Example 89, 2-(4-(((2-(7,8-dimethyl-[1,2,4]triazolo[4,3-a]pyridin-6-yl)-3-isopropyl-1H-indol-5-yl)oxy)methyl)piperidin-1-yl)-N,N-dimethylacetamide]	6.87 µM	0.0165 µM	0.0076 µM
Cc1cc(-c2[nH]c3ccc(O[C@H]4CCCN(CC(=O)N(C)C)C4)cc3c2C(C)C)cn2ncnc12 [Example 83, (S)-2-(3-((3-isopropyl-2-(8-methyl-[1,2,4]triazolo[1,5-a]pyridin-6-yl)-1H-indol-5-yl)oxy)piperidin-1-yl)-N,N-dimethylacetamide]	5.67 µM	0.0282 µM	0.0018 µM
Cc1c(-c2[nH]c3ccc(OC4CCN(C(C)C)CC4)cc3c2C(C)C)cn(C)c(=O)c1Cl [Example 45]	2.2 µM	0.0022 µM	0.0096 µM
CNC(=O)CN1CCC(Oc2ccc3[nH]c(-c4cc(C)c5ncnn5c4)c(C(C)C)c3c2)CC1 [Example 114, 2-(4-((3-isopropyl-2-(8-methyl-[1,2,4]triazolo[1,5-a]pyridin-6-yl)-1H-indol-5-yl)oxy)piperidin-1-yl)-N-methylacetamide]	31.6 µM	0.0051 µM	0.001 µM
Cc1cc(-c2[nH]c3ccc(OCCN4CCOCC4)cc3c2C(C)C)cn2ncnc12 [Example 5, 4-(2-((3-isopropyl-2-(8-methyl-[1,2,4]triazolo[1,5-a]pyridin-6-yl)-1H-indol-5-yl)oxy)ethyl)morpholine]	37.3 µM	0.0033 µM	0.0081 µM
CNC(=O)CN1CCC(COc2ccc3[nH]c(-c4cc(C)c5ncnn5c4)c(C(C)C)c3c2)CC1 [Example 113, 2-(4-(((3-isopropyl-2-(8-methyl-[1,2,4]triazolo[1,5-a]pyridin-6-yl)-1H-indol-5-yl)oxy)methyl)piperidin-1-yl)-N-methylacetamide]	6.69 µM	0.0076 µM	0.0014 µM
CCc1c(-c2ccc(OC)c(OC)c2)[nH]c2ccc(OCC3CCNCC3)cc12 [Example 162, 2-(3,4-dimethoxyphenyl)-3-ethyl-5-(piperidin-4-ylmethoxy)-1H-indole]	2.53 µM	0.0228 µM	0.105 µM
COc1ccc(-c2[nH]c3ccc(OCC(=O)NCC(C)(C)O)cc3c2C(C)C)cc1OC [Example 150, 2-((2-(3,4-dimethoxyphenyl)-3-isopropyl-1H-indol-5-yl)oxy)-N-(2-hydroxy-2-methylpropyl)acetamide]	> 50 µM	0.947 µM	0.302 µM
COc1ccc(-c2[nH]c3ccc(OCC(=O)NC4CCC(N)CC4)cc3c2C(C)C)cc1OC (stereo not drawn) [Example 131, N-(4-aminocyclohexyl)-2-((2-(3,4-dimethoxyphenyl)-3-isopropyl-1H-indol-5-yl)oxy) acetamide]	0.908 µM	0.0183 µM	0.293 µM
Cc1cc(-c2[nH]c3ccc(OCC(=O)N4CC5CN(C)CC5C4)cc3c2C(C)C)ccn1 (stereo not drawn) [Example 149, 2-((3-isopropyl-2-(2-methylpyridin-4-yl)-1H-indol-5-yl)oxy)-1-(5-methylhexahydropyrrolo[3,4-c]pyrrol-2(1H)-yl)ethan-1-one]	0.41 µM	0.0238 µM	0.119 µM
Cc1c(-c2[nH]c3ccc(OCC4CCN(C(C)C)CC4)cc3c2C(C)C)cn(C)c(=O)c1C [Example 49, 5-(3-isopropyl-5-((1-isopropylpiperidin-4-yl)methoxy)-1H-indol-2-yl)-1,3,4-trimethylpyridin-2(1H)-one]	4.12 µM	0.0018 µM	0.0092 µM
COc1ccc(-c2[nH]c3ccc(O[C@H]4CCNC4)cc3c2C(C)C)cc1OC [Example 170, (S)-2-(3,4-dimethoxyphenyl)-3-isopropyl-5-(pyrrolidin-3-yloxy)-1H-indole]	1.08 µM	0.0313 µM	0.0839 µM
